Laboratory results as given in patent US20250230193A1, “CYCLIC COMPOUND HAVING SELECTIVE KRAS INHIBITORY EFFECT ON HRAS AND NRAS” (CHUGAI SEIYAKU KABUSHIKI KAISHA, priority 2022, published 2025).

Experiments:
[1] = target: GDP-bound NRAS wild-type protein (Homo sapiens, UniProt P01111); experiment: Binding to NRAS by surface plasmon resonance (SPR), Single Cycle Kinetics; details: KD ratio, GDP-bound NRAS wild-type vs GDP-bound KRAS wild-type, SPR
[2] = target: GDP-bound HRAS wild-type protein (Homo sapiens, UniProt P01112); experiment: Binding to HRAS by surface plasmon resonance (SPR), Single Cycle Kinetics; details: KD ratio, GDP-bound HRAS wild-type vs GDP-bound KRAS wild-type, SPR
Chain of GDP-bound HRAS wild-type protein (P01112 whole entry): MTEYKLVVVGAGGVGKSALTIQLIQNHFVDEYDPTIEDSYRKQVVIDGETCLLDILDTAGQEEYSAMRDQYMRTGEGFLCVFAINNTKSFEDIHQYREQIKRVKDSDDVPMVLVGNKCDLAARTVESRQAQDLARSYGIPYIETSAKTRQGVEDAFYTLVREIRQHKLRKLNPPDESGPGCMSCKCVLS

Chain of GDP-bound NRAS wild-type protein (P01111 whole entry): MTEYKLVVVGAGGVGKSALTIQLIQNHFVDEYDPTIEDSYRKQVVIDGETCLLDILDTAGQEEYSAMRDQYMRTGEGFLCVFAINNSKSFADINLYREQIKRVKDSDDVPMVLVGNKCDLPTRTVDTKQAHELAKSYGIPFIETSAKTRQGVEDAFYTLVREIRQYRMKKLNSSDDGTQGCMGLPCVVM

Compound	NRAS/KRAS (ratio of KD value for NRAS to KD value for KRAS) [1]	HRAS/KRAS (ratio of KD value for HRAS to KD value for KRAS) [2]
CC[C@H](C)[C@@H]1NC(=O)[C@H](CC(F)F)N(C)C(=O)C[C@@H](C(=O)N(C)CC)N(C)C(=O)[C@H](C2CCCC2)N(C)C(=O)C2(CC(C)(C)C2)NC(=O)[C@@H]2C[C@@H](C)CN2C(=O)[C@H](CCc2ccc(C(F)(F)F)c(Cl)c2)NC(=O)CN(C)C(=O)[C@H](Cc2ccc(C)cc2)N2CC/C=C\C[C@@H](C2=O)N(C)C(=O)CN(C)C1=O [PP1837]	A (a compound having 10 or more and less than 20 is denoted as A)	A (a compound having 10 or more and less than 20 is denoted as A)
CC[C@H](C)[C@@H]1NC(=O)[C@H](CC)N(C)C(=O)C[C@@H](C(=O)N(C)C)N(C)C(=O)[C@H](C2CCCC2)N(C)C(=O)C2(CC(C)(C)C2)NC(=O)[C@@H]2C[C@@H](C)CN2C(=O)[C@H](CCc2ccc(C(F)(F)F)c(OC)c2)NC(=O)CN(C)C(=O)[C@H](Cc2ccc(C)cc2)N2CC/C=C\C[C@@H](C2=O)N(C)C(=O)CN(C)C1=O [PP1838]	A (a compound having 10 or more and less than 20 is denoted as A)	A (a compound having 10 or more and less than 20 is denoted as A)
CC[C@H](C)[C@@H]1NC(=O)[C@H](CC)N(C)C(=O)C[C@@H](C(=O)N(CC)CC)N(C)C(=O)[C@H](C2CCCC2)N(C)C(=O)C2(CC(C)(C)C2)NC(=O)[C@@H]2C[C@H](C)CN2C(=O)[C@H](CCc2ccc(C(F)(F)F)c(OC)c2)NC(=O)CN(C)C(=O)[C@H](Cc2ccc(C)cc2)N2CC/C=C\C[C@@H](C2=O)N(C)C(=O)CN(C)C1=O [PP1839]	A (a compound having 10 or more and less than 20 is denoted as A)	B (a compound having 3 or more and less than 10 is denoted as B)
CCC[C@H]1C(=O)N[C@@H]([C@@H](C)CC)C(=O)N(C)CC(=O)N(C)[C@H]2C/C=C\CCN(C2=O)[C@@H](Cc2ccc(C)cc2)C(=O)N(C)CC(=O)N[C@@H](CCc2ccc(C(F)(F)F)c(OC)c2)C(=O)N2C[C@@H](C)C[C@H]2C(=O)NC2(CCC2)C(=O)N(C)[C@@H](C2CCCC2)C(=O)N(C)[C@H](C(=O)N(C)CC)CC(=O)N1C [PP1840]	A (a compound having 10 or more and less than 20 is denoted as A)	B (a compound having 3 or more and less than 10 is denoted as B)
CC[C@H](C)[C@@H]1NC(=O)[C@H](CC)N(C)C(=O)C[C@@H](C(=O)N(CC)CC)N(C)C(=O)[C@H](C2CCCC2)N(C)C(=O)C2(CC(C)(C)C2)NC(=O)[C@@H]2C[C@@H](C)CN2C(=O)[C@H](CCc2ccc(C(F)(F)F)c(OC)c2)NC(=O)CN(C)C(=O)[C@H](Cc2ccc(C)cc2)N2CC/C=C\C[C@@H](C2=O)N(C)C(=O)CN(C)C1=O [PP1841]	AA (a compound having 20 or more is denoted as AA)	A (a compound having 10 or more and less than 20 is denoted as A)
CC[C@H](C)[C@@H]1NC(=O)[C@H](CC)N(C)C(=O)C[C@@H](C(=O)N(C)C)N(C)C(=O)[C@H](C2CCCC2)N(C)C(=O)C2(CC(C)(C)C2)NC(=O)[C@@H]2C[C@H](C)CN2C(=O)[C@H](CCc2ccc(C(F)(F)F)c(Cl)c2)NC(=O)CN(C)C(=O)[C@H](Cc2ccc(C)cc2)N2CC/C=C\C[C@@H](C2=O)N(C)C(=O)CN(C)C1=O [PP1844]	A (a compound having 10 or more and less than 20 is denoted as A)	B (a compound having 3 or more and less than 10 is denoted as B)
CC[C@H](C)[C@@H]1NC(=O)[C@H](CC)N(C)C(=O)C[C@@H](C(=O)N(C)C)N(C)C(=O)[C@H](C2CCCC2)N(C)C(=O)C2(CC(C)(C)C2)NC(=O)[C@@H]2C[C@@H](C)CN2C(=O)[C@H](CCc2ccc(C(F)(F)F)c(Cl)c2)NC(=O)CN(C)C(=O)[C@H](Cc2ccc(C)cc2)N2CC/C=C\C[C@@H](C2=O)N(C)C(=O)CN(C)C1=O [PP1846]	A (a compound having 10 or more and less than 20 is denoted as A)	B (a compound having 3 or more and less than 10 is denoted as B)
CC[C@H](C)[C@@H]1NC(=O)[C@H](CC(C)C)N(C)C(=O)C[C@@H](C(=O)N(CC)CC)N(C)C(=O)[C@H](C2CCCC2)N(C)C(=O)C2(CCC2)NC(=O)[C@@H]2C[C@@H](C)CN2C(=O)[C@H](CCc2ccc(C(F)(F)F)c(OC)c2)NC(=O)CN(C)C(=O)[C@H](Cc2ccc(C)cc2)N2CC/C=C\C[C@@H](C2=O)N(C)C(=O)CN(C)C1=O [PP1849]	A (a compound having 10 or more and less than 20 is denoted as A)	A (a compound having 10 or more and less than 20 is denoted as A)
CCO[C@@H]1C[C@H]2C(=O)NC3(CCC3)C(=O)N(C)[C@@H](C3CCCC3)C(=O)N(C)[C@H](C(=O)N(CC)CC)CC(=O)N(C)[C@@H](CC(C)C)C(=O)N[C@@H]([C@@H](C)CC)C(=O)N(C)CC(=O)N(C)[C@H]3C/C=C\CCN(C3=O)[C@@H](Cc3ccc(C)cc3)C(=O)N(C)CC(=O)N[C@@H](CCc3ccc(C(F)(F)F)c(OC)c3)C(=O)N2C1 [PP1851]	A (a compound having 10 or more and less than 20 is denoted as A)	A (a compound having 10 or more and less than 20 is denoted as A)
CC[C@H](C)[C@@H]1NC(=O)[C@H](CC(C)C)N(C)C(=O)C[C@@H](C(=O)N(C)C)N(C)C(=O)[C@H](C2CCCC2)N(C)C(=O)C2(CCC2)NC(=O)[C@@H]2C[C@H](C)CN2C(=O)[C@H](CCc2ccc(C(F)(F)F)c(Cl)c2)NC(=O)CN(C)C(=O)[C@H](Cc2ccc(C)cc2)N2CC/C=C\C[C@@H](C2=O)N(C)C(=O)CN(C)C1=O [PP1852]	A (a compound having 10 or more and less than 20 is denoted as A)	B (a compound having 3 or more and less than 10 is denoted as B)
CC[C@H](C)[C@@H]1NC(=O)[C@H](CC(C)C)N(C)C(=O)C[C@@H](C(=O)N(C)C)N(C)C(=O)[C@H](C2CCCC2)N(C)C(=O)C2(CCC2)NC(=O)[C@@H]2C[C@@H](C)CN2C(=O)[C@H](CCc2ccc(C(F)(F)F)c(Cl)c2)NC(=O)CN(C)C(=O)[C@H](Cc2ccc(C)cc2)N2CC/C=C\C[C@@H](C2=O)N(C)C(=O)CN(C)C1=O [PP1854]	A (a compound having 10 or more and less than 20 is denoted as A)	A (a compound having 10 or more and less than 20 is denoted as A)
CC[C@H](C)[C@@H]1NC(=O)[C@H](CC)N(C)C(=O)C[C@@H](C(=O)N(C)CC)N(C)C(=O)[C@H](C2CCCC2)N(C)C(=O)C2(CCC2)NC(=O)[C@@H]2C[C@@H](C)CN2C(=O)[C@H](CCc2ccc(C(F)(F)F)c(OC)c2)NC(=O)CN(C)C(=O)[C@H](Cc2ccc(C)cc2)N2CC/C=C\C[C@@H](C2=O)N(C)C(=O)CN(C)C1=O [PP1855]	AA (a compound having 20 or more is denoted as AA)	A (a compound having 10 or more and less than 20 is denoted as A)
CC[C@H](C)[C@@H]1NC(=O)[C@H](CC)N(C)C(=O)C[C@@H](C(=O)N(C)C)N(C)C(=O)[C@H](C2CCCC2)N(C)C(=O)C2(CC(C)(C)C2)NC(=O)[C@@H]2C[C@H](C)CN2C(=O)[C@H](CCc2cc(F)c(C(F)(F)F)c(F)c2)NC(=O)CN(C)C(=O)[C@H](Cc2ccc(C)cc2)N2CC/C=C\C[C@@H](C2=O)N(C)C(=O)CN(C)C1=O [PP1856]	A (a compound having 10 or more and less than 20 is denoted as A)	A (a compound having 10 or more and less than 20 is denoted as A)
CCC[C@H]1C(=O)N[C@@H]([C@@H](C)CC)C(=O)N(C)CC(=O)N(C)[C@H]2C/C=C\CCN(C2=O)[C@@H](Cc2ccc(C)cc2)C(=O)N(C)CC(=O)N[C@@H](CCc2ccc(C(F)(F)F)c(OC)c2)C(=O)N2C[C@@H](C)C[C@H]2C(=O)NC2(CCC2)C(=O)N(C)[C@@H](C2CCCC2)C(=O)N(C)[C@H](C(=O)N(C)C)CC(=O)N1C [PP1857]	A (a compound having 10 or more and less than 20 is denoted as A)	B (a compound having 3 or more and less than 10 is denoted as B)
CCC[C@H]1C(=O)N[C@@H]([C@@H](C)CC)C(=O)N(C)CC(=O)N(C)[C@H]2C/C=C\CCN(C2=O)[C@@H](Cc2ccc(C)cc2)C(=O)N(C)CC(=O)N[C@@H](CCc2ccc(C(F)(F)F)c(OC)c2)C(=O)N2C[C@H](C)C[C@H]2C(=O)NC2(CCC2)C(=O)N(C)[C@@H](C2CCCC2)C(=O)N(C)[C@H](C(=O)N(C)C)CC(=O)N1C [PP1859]	A (a compound having 10 or more and less than 20 is denoted as A)	A (a compound having 10 or more and less than 20 is denoted as A)
CCC[C@H]1C(=O)N[C@@H]([C@@H](C)CC)C(=O)N(C)CC(=O)N(C)[C@H]2C/C=C\CCN(C2=O)[C@@H](Cc2ccc(C)cc2)C(=O)N(C)CC(=O)N[C@@H](CCc2cc(F)c(C(F)(F)F)c(F)c2)C(=O)N2C[C@@H](C)C[C@H]2C(=O)NC2(CCC2)C(=O)N(C)[C@@H](C2CCCC2)C(=O)N(C)[C@H](C(=O)N(C)CC)CC(=O)N1C [PP1860]	A (a compound having 10 or more and less than 20 is denoted as A)	A (a compound having 10 or more and less than 20 is denoted as A)
CC[C@H](C)[C@@H]1NC(=O)[C@H](CC2CC2)N(C)C(=O)C[C@@H](C(=O)N(C)C)N(C)C(=O)[C@H](C2CCCC2)N(C)C(=O)C2(CCC2)NC(=O)[C@@H]2C[C@H](C)CN2C(=O)[C@H](CCc2ccc(C(F)(F)F)c(OC)c2)NC(=O)CN(C)C(=O)[C@H](Cc2ccc(C)cc2)N2CC/C=C\C[C@@H](C2=O)N(C)C(=O)CN(C)C1=O [PP1861]	A (a compound having 10 or more and less than 20 is denoted as A)	B (a compound having 3 or more and less than 10 is denoted as B)
